Data taken from patent publication US20150126467A1, “USE OF ALGINATE OLIGOMERS TO ENHANCE THE EFFECTS OF ANTIFUNGAL AGENTS” (AlgiIPharma AS, priority 2011, published 2015).
Values after ≈ are worked out from the molar mass of the structure shown. Like-named read-outs stand apart in the source and are kept apart here.

Key:
[1] = tested on: Candida albicans; test: Robotic MIC assay with asthma/COPD medicaments (Example 5); type: cell-based; conditions: for effect on growth of C. albicans: at the given concentrations, data not shown; for influence on the MIC values of nystatin or amphotericin B in combination with OligoG CF5/20: ipratropium bromide and salbutamol at 0.01 mM and 1 mM, budesonide at 0.01 mM, formoterol at 0.5 mM
Experimental: A robotic MIC Assay was performed as follows. OligoG CF-5/20 were dissolved in medium (Mueller-Hinton broth or M19 broth depending on experiment) to 1.25 times of the desired assay concentrations (2, 6 and 10%). The antifungal agents under test were dissolved in medium without OligoG CF-5/20 and in medium with OligoG CF-5/20 at a concentration of 1.25 times the highest desired assay concentrations. For experiments where the effect of adding different concentrations of Na^+ was investigated, NaCl was dissolved in medium to the desired concentrations (10, 30 and 50 mM).
Two-fold serial dilutions of antifungal agents were made in medium with different concentrations of OligoG CF-5/20, and the solutions were placed in four parallel wells in Nunc 384-well micro plates (30 μl per well in Nunc 242757 microplates). A group of 8 wells with no addition of antifungal agents for each OligoG CF-5/20 concentration was included on each microplate as growth reference. To each well in the 384-well assay plates was added 7.5 μl of medium inoculated with a frozen stock culture of Candida albicans (strain CCUG 39343).
The micro plates were placed in plastic bags and incubated without shaking at 34° C. The optical density at 600 nm in the microwells was measured after approximately 13, 18, 24 and 34 hours of incubation, and the relative growth yield in each well was calculated based on the growth in the reference groups.
The robotic assay described in Example 1 was employed in this Example. […] The concentration utilized for the different components were based on information from Manocha et al. (2006).
In this assay only Mueller-Hinton broth was used since this is the medium specified for standardized MIC assays (Jorgensen et al., 1999).

[2] = cited from earlier work
[3] = tested on: Aspergillus niger CCUG 18919; test: Robotic MIC assay, Aspergillus (Example 4); type: cell-based; conditions: Aspergillus niger, CCUG18919, 48 h, Mueller-Hinton broth, read-out: Minimum Inhibitory Concentration (MIC)
Experimental: (§1) Aspergillus sp. was grown at 30° C. for 96 h on YM-agar. Spores and aerial mycelium was cut out from the agar, suspended in 1 ml YM-broth and dispersed with glass beads (1 mm) in a mini bead beater for 2 min. Glycerol was added to the suspension to 10% and frozen at −80° C.
(§2) Each batch of frozen stock culture was then characterized in separate growth experiments using Mueller-Hinton broth to determine the minimum amount of inoculum giving satisfactory growth after 48 h under the conditions relevant for the MIC assay. This inoculation procedure is used in order to reduce day to day variation in bioassays.
(§3) Robotic minimum inhibitory concentration (MIC) assay was performed as follows. OligoG CF-5/20 was dissolved in medium (Mueller-Hinton broth) to 1.25 times of the desired assay concentrations (2, 6 and 10%). […].
(§4) Two-fold serial dilutions of antifungal agents were made in medium with different concentrations of OligoG CF-5/20, and the solutions were placed in four parallel wells in Nunc 384-well micro plates (30 μl per well in Nunc 242757 microplates). A group of 8 wells with no addition of antifungal agents for each OligoG CF-5/20 concentration was included on each micro plate as growth reference. Each well in the 384-well assay plates was added 7.5 μl of the MH medium inoculated with frozen stock culture of the relevant strains.
(§5) The microplates were placed in plastic bags and incubated without shaking at 34° C. The optical density at 600 nm in the microwells was measured after approximately 24 and 48 hours of incubation. […]

[4] = tested on: Aspergillus fumigatus CCUG 17460; test: Robotic MIC assay, Aspergillus (Example 4); type: cell-based; conditions: Aspergillus fumigatus, CCUG17460, 48 h, Mueller-Hinton broth, read-out: Minimum Inhibitory Concentration (MIC)
Experimental: as §1, §2, §3, §4, §5

[5] = tested on: Aspergillus flavus CCUG 28296; test: Robotic MIC assay, Aspergillus (Example 4); type: cell-based; conditions: Aspergillus flavus, CCUG23451 / CCUG28296, 48 h, Mueller-Hinton broth, read-out: Minimum Inhibitory Concentration (MIC)
Experimental: as §1, §2, §3, §4, §5

[6] = tested on: various Aspergillus species; test: Robotic MIC assay, summary over species (Example 4); type: cell-based; conditions: Aspergillus species tested
Experimental: as §1, §2, §3, §4, §5

CC(C)(C)NCC(O)c1ccc(O)c(CO)c1 (stereo not shown) [salbutamol]
effect on growth of C. albicans [1]: did not affect growth | influence on the MIC values of nystatin or amphotericin B in combination with OligoG CF5/20 [1]: do not significantly influence | solubility in water [2]: soluble in water

CCCC1O[C@@H]2C[C@H]3[C@@H]4CCC5=CC(=O)C=C[C@]5(C)[C@H]4[C@@H](O)C[C@]3(C)[C@]2(C(=O)CO)O1 (stereo partly shown) [budesonide]
solubility in water [2]: limited solubility in water

CC(C)[N+]1(C)[C@@H]2CC[C@H]1C[C@@H](OC(=O)C(CO)c1ccccc1)C2.O.[Br-] (stereo partly shown) [Ipratropium bromide, ipratropium bromide monohydrate]
effect on growth of C. albicans [1]: did not affect growth | influence on the MIC values of nystatin or amphotericin B in combination with OligoG CF5/20 [1]: do not significantly influence

C[C@@H](c1ncncc1F)[C@](O)(Cn1cncn1)c1ccc(F)cc1F [Voriconazole, voriconazole]
MIC ([3]; A. niger CCUG 18919, 0% OligoG): 0.25 µg/mL (≈ 0.716 µM) | MIC ([3]; A. niger CCUG 18919, 2% OligoG): 0.0625 µg/mL (≈ 0.179 µM) | MIC ([3]; A. niger CCUG 18919, 6% OligoG): < 0.0312 µg/mL | MIC ([3]; A. niger CCUG 18919, 10% OligoG): < 0.0312 µg/mL | MIC ([4]; A. fumigatus CCUG 17460, 0% OligoG): 0.125 µg/mL (≈ 0.358 µM) | MIC ([4]; A. fumigatus CCUG 17460, 2% OligoG): 0.125 µg/mL (≈ 0.358 µM) | MIC ([4]; A. fumigatus CCUG 17460, 6% OligoG): 0.0625 µg/mL (≈ 0.179 µM) | MIC ([4]; A. fumigatus CCUG 17460, 10% OligoG): 0.0312 µg/mL (≈ 0.0895 µM) | MIC ([5]; A. flavus CCUG 23451, 0% OligoG): 0.0625 µg/mL (≈ 0.179 µM) | MIC ([5]; A. flavus CCUG 23451, 2% OligoG): 0.0625 µg/mL (≈ 0.179 µM) | MIC ([5]; A. flavus CCUG 23451, 6% OligoG): < 0.0312 µg/mL | MIC ([5]; A. flavus CCUG 23451, 10% OligoG): < 0.0312 µg/mL | effect of addition of OligoG CF-5/20 on MIC values [6]: reduction in MIC values
